According to US9546195B2, “Hydrophobic ceragenin compounds and devices incorporating same” (BRIGHAM YOUNG UNIVERSITY, priority 2011, dated 2017):

Experiments:
microbes = experiment: Ability to elute from polymer and kill microbes; conditions: compared with other ceragenins
S. aureus [1] = experiment: MIC of CSA-138 for S. aureus; type: cell-based; conditions: Staphylococcus aureus
P. aeruginosa [2] = experiment: MIC of CSA-138 for P. aeruginosa; type: cell-based; conditions: Pseudomonas aeruginosa
[3] = Elution of radiolabeled CSA-138 from hydrogel contact lenses, scintillation counting; type: physicochemical
Procedure: To decrease the detection limit for CSA-138, we prepared a radiolabeled version of CSA-138 (CSA-138T2), incorporated it into contact lenses, and quantified its elution from lenses using scintillation counting.
Lenses containing 1% CSA-138 were stored in 0.5 mL phosphate buffered saline (PBS) prior to testing. One set of lenses was autoclaved for 45 min before elution studies were performed. For elution studies, lenses were suspended in 2 ml aliquots of PBS, 10% TSB growth medium, 10% TSB growth medium containing 10^6 CFU of Staphylococcus aureus, or 10% TSB growth medium containing 10^6 CFU of Pseudomonas aeruginosa. Corresponding aliquots were exchanged every 24 h, including bacterial inocula. Samples were removed every 24 h and analyzed for the presence of CSA-138 using scintillation counting. A standard curve was generated to correlate counts per minute to concentration of CSA-138. All experiments were performed in triplicate.

[4] = Elution of CSA-138 from hydrogel contact lenses, LC/MS with mass-labeled internal standard; type: physicochemical; conditions: lenses with CSA-138 incorporated at 1%; LC/MS detection limit about 2 μg/ml
Procedure: To better understand the mechanism by which hydrophobic ceragenin compounds can prevent bacterial colonization, the bonding between CSA-138 and a hydrogel used in contact lenses was evaluated. In a first example, we determined the rate at which CSA-138 elutes from a hydrogel suitable for use in contact lenses. To quantify the amount of ceragenin eluting from the hydrogel, we used LC/MS using a mass-labeled internal standard. However, this method only gave detection limits of about 2 μg/ml, and we were able to effectively kill bacteria at constant elution rates below the detection limit.

S. aureus [5] = conditions: elution from lenses, inocula 10^6 CFU S. aureus; cited from earlier work
P. aeruginosa [6] = conditions: elution from lenses, inocula 10^6 CFU P. aeruginosa; cited from earlier work

Row | SMILES | ability to elute and kill microbes (microbes) | MIC (S. aureus [1]) [µg/mL] | MIC (P. aeruginosa [2]) [µg/mL] | elution in the presence of bacteria ([3]; 10% TSB with 10^6 CFU S. aureus (nine days) or P. aeruginosa (eight days), FIGS. 6 and 7) | elution on the first day ([3]; lenses containing 1% CSA-138, suspended in 2 ml PBS, first day (FIG. 3)) | time until elution of CSA-138 drops below 1 μg/ml ([3]; trend of FIG. 5 extended) | time until elution fell below detection limits [4] | prevents colonization, consecutive days (S. aureus [5]) [days] | prevents colonization (P. aeruginosa [6]) [days]
1 | CCCCCCCCCCNCCC[C@@H](C)[C@H]1CC[C@H]2[C@@H]3[C@H](OCCCN)C[C@@H]4C[C@H](OCCCN)CC[C@]4(C)[C@H]3C[C@H](OCCCN)[C@]12C [CSA-136] | advantageous over CSA-135 | – | – | – | – | – | – | – | –
2 | CCCCCCCCCCCCCNCCC[C@@H](C)[C@H]1CC[C@H]2[C@@H]3[C@H](OCCCN)C[C@@H]4C[C@H](OCCCN)CC[C@]4(C)[C@H]3C[C@H](OCCCN)[C@]12C [CSA-138] | – | 0.5 | 1 | fluctuated substantially | about 2.2 μg/ml | about 40 days | within five days | 30 | 19
